In patent US4540513A, “Decapeptide having gonadotropin releasing activity” (Kanegafuchi Kagaku Kogyo Kabushiki Kaisha, priority 1984, dated 1985):
Where a SMILES comes first, the peptide text is derived from it. [ ]: non-standard residue; d: D form. pGlu = O=C1CC[C@@H](C(=O)O)N1

Test system: rat prehypophysis (anterior pituitary) cells
Assay: Gonadotropin (LH and FSH) releasing activity, monolayer culture of rat prehypophysis cells, radioimmunoassay of the supernatant
Assay type: cell-based
Description: The synthetic or natural decapeptides prepared in Example 1 was dissolved in 1N acetic acid so that the concentration was 1 μg/ml.
A series of half dilutions from 10.24 ng/ml to 10 pg/ml was prepared from the above solution.
Each sample solution in the series was dried in a rotary evaporator by evaporating 1N acetic acid.
The releasing activity was measured by monolayer culture method using rat prehypohysis cells. After rat prehypophysis cells were disperesed with tripsin and Viokase, the dispersed cells were washed well with a culture medium [Dulbecco's modified Eagle's medium (DMEM) containing 100 unit/ml gentamicin, 2.5 μ/ml fungizone, 5% horse serum, 5% human serum, and 2.5% fetal bovine serum]. The cells were inoculated at a density of 5×10^4 cells in each well of a plastic culture tray having 96 wells and precultured for 4 days.
Samples to be tested for gonadotropin releasing activity were added to the fifth-day culture and the culture was further incubated for 24 hours at 37° C. in the presence of 5% CO2.
On the fifth day of the culture the above dried peptide sampls were dissolved in 0.5 ml of the Dulbecco's modified Eagle's medium (DMEM), 0.2 ml of aligot was aded to each well, and the cells were cultured in the well for additional 24 hours.
After the culture, the supernatent of the culture was withdrawn and assayed for LH and FSH with the radio imunoassay kit provided by NIH.

[1] = 24 hours incubation, LH and FSH by radioimmunoassay

NC(=O)CNC(=O)[C@@H]1CCCN1C(=O)[C@H](Cc1ccc(O)cc1)NC(=O)[C@H](Cc1c[nH]c2ccccc12)NC(=O)CNC(=O)[C@H](Cc1c[nH]cn1)NC(=O)[C@H](CO)NC(=O)[C@H](Cc1c[nH]c2ccccc12)NC(=O)[C@H](Cc1c[nH]cn1)NC(=O)[C@@H]1CCC(=O)N1 [decapeptide of the present invention, pGlu-His-Trp-Ser-His-Gly-Trp-Tyr-Pro-Gly-NH2] ([pGlu]HWSHGWYPG-NH2)
lowest detectable amount [1]: 160 pg/mL
specific activity at the half maximum dose [1]: 3.1 ng/mL
LH and FSH releasing activity, specific activity relative to conventional LH-RH (% of the conventional LH-RH in specific activity): 30%
gonadotropin-releasing potency relative to mammalian LHRH (bioassay with rat anterior pituitary cells, % of that of mammalian LHRH): about 32%
gonadotropin-releasing potency relative to chicken LHRH (bioassay with rat anterior pituitary cells, times more potent than chicken LHRH): 8 times
LH releasing activity at the maximum dose relative to control (maximum dose, bigger than that of the control): about 3.5 times
LH releasing activity at the maximum dose (maximum dose, control 200 ng/ml LH): 3200 ng/ml LH
activity of the purified relative to the starting material (purified from chicken hypothalamus extract, times more than the starting material): about 15×10^8 times
